In PMC10913730, “Antimicrobial activity of a natural compound and analogs against multi-drug-resistant Gram-positive pathogens” (Microbiology Spectrum, 2024):
Converted amounts (≈) assume the structure as drawn. Where two headings read alike, the source gives them in different places.

Assays:
MRSA isolates = experiment: MIC/MBC, CLSI broth microdilution, MRSA isolates; format: cell-based, Staphylococcus aureus
[1] = test system: Staphylococcus epidermidis isolates; experiment: microbe, parasite or virus in culture; format: cell-based
[2] = test system: MRSA isolates SA LL 06 and TCH 1516; experiment: Kill kinetics against stationary-phase MRSA; format: cell-based, Staphylococcus aureus; settings: shaking, 37°C
Procedure: MRSA isolates, TCH 1516 and SA LL 06, were grown to the stationary phase, and the rate of bacterial killing was determined. Frozen bacterial stocks were streaked onto TSA plates and grown overnight. A single colony was selected and incubated overnight in LB broth at 37°C with constant orbital shaking at 200 RPM. Next, bacterial suspension was washed twice with 150 mM sodium chloride and resuspended in MH broth at a concentration of 1.2E9 CFU/mL. […] Glass tubes containing 5 mL of bacteria and drug solutions were grown in a shaking incubator at 37°C. At 0, 4, 8, and 24 hours, bacterial suspensions were collected, serially diluted, and plated onto a blood agar plate. Bacteria were allowed to grow for 24 hours and were enumerated to yield colony-forming units per milliliter.

[3] = test system: MRSA isolate SAD05 biofilms; format: cell-based, Staphylococcus aureus; settings: 72-hour biofilms of SAD05, MBEC assay
MRSA isolate TCH 1516 [4] = experiment: Single-step resistance development; format: cell-based, Staphylococcus aureus
Procedure: For the single-step study, bacteria were grown to the stationary phase as described above. Bacteria at a concentration of 1E9 CFU were then plated onto C59 and vancomycin-loaded plates containing 1×, 2×, 4×, and 8× MIC concentrations of the therapeutic agents with 1% DMSO. Bacteria were incubated at 37°C for 48 hours, and colony counts were enumerated to calculate the frequency of resistance development, as described in the literature ([45], [46]).

MRSA isolate TCH 1516 [5] = experiment: Resistance acquisition during serial passage; format: cell-based, Staphylococcus aureus; settings: serial passage, within 7 days, stable thereafter
Procedure: MRSA isolate TCH 1516 was grown to the stationary phase (OD650 = 1.0) in 10 mL of MH broth. […] The second highest drug concentration resulting in bacterial growth (OD650 >1.0) was used as the inoculum after a 1:1,000 dilution for subsequent steps, every 24 hours, for up to 21 days.

[6] = Staphylococcus aureus, MRSA, pH 5.5, MRSA 0606, pH 5.5
[7] = Staphylococcus aureus, MRSA, pH 5.5, MRSA 0608, pH 5.5
[8] = Staphylococcus aureus, MRSA, pH 5.5, MRSA 0634, pH 5.5
[9] = Staphylococcus aureus, MRSA, pH 5.5, MRSA 0641, pH 5.5
[10] = Staphylococcus aureus, MRSA, pH 5.5, MRSA 0646, pH 5.5
[11] = Staphylococcus aureus, MRSA, pH 5.5, TCH 1516, pH 5.5
[12] = Staphylococcus aureus, MRSA, pH 6.5, MRSA 0606, pH 6.5
[13] = Staphylococcus aureus, MRSA, pH 6.5, MRSA 0608, pH 6.5
[14] = Staphylococcus aureus, MRSA, pH 6.5, MRSA 0634, pH 6.5
[15] = Staphylococcus aureus, MRSA, pH 6.5, MRSA 0641, pH 6.5
[16] = Staphylococcus aureus, MRSA, pH 6.5, MRSA 0646, pH 6.5
[17] = Staphylococcus aureus, MRSA, pH 6.5, TCH 1516, pH 6.5
[18] = 21 Staphylococcus epidermidis isolates

Compound: CN[C@H](CC(C)C)C(=O)N[C@H]1C(=O)N[C@@H](CC(N)=O)C(=O)N[C@H]2C(=O)N[C@H]3C(=O)N[C@H](C(=O)N[C@H](C(=O)O)c4cc(O)cc(O)c4-c4cc3ccc4O)[C@H](O)c3ccc(c(Cl)c3)Oc3cc2cc(c3O[C@@H]2O[C@H](CO)[C@@H](O)[C@H](O)[C@H]2O[C@H]2C[C@](C)(N)[C@H](O)[C@H](C)O2)Oc2ccc(cc2Cl)[C@H]1O [Vancomycin, vancomycin, reference compound]
- MBC (MRSA isolates; MRSA 0606, pH 7.4): 2 µg/mL (≈ 1.38 µM)
- MIC (MRSA isolates; MRSA 0606, pH 7.4): 2 µg/mL (≈ 1.38 µM)
- MBC (MRSA isolates; MRSA 0608, pH 7.4): 6 µg/mL (≈ 4.14 µM)
- MIC (MRSA isolates; MRSA 0608, pH 7.4): 2 µg/mL (≈ 1.38 µM)
- MBC (MRSA isolates; MRSA 0634, pH 7.4): 6 µg/mL (≈ 4.14 µM)
- MIC (MRSA isolates; MRSA 0634, pH 7.4): 2 µg/mL (≈ 1.38 µM)
- MBC (MRSA isolates; MRSA 0641, pH 7.4): 4 µg/mL (≈ 2.76 µM)
- MIC (MRSA isolates; MRSA 0641, pH 7.4): 1 µg/mL (≈ 0.69 µM)
- MBC (MRSA isolates; MRSA 0646, pH 7.4): 6 µg/mL (≈ 4.14 µM)
- MIC (MRSA isolates; MRSA 0646, pH 7.4): 2 µg/mL (≈ 1.38 µM)
- MIC90 (MRSA isolates; Staphylococcus aureus, MRSA, 39 evaluated MRSA isolates, CLSI broth microdilution): 2 µg/mL (≈ 1.38 µM)
- MIC (MRSA isolates; Staphylococcus aureus, MRSA, SA LL 06, as given for the kill kinetic assay): 1 µg/mL (≈ 0.69 µM)
- MIC (MRSA isolates; Staphylococcus aureus, MRSA, TCH 1516, as given for the kill kinetic assay): 4 µg/mL (≈ 2.76 µM)
- MBC (MRSA isolates; [6]): 2 µg/mL (≈ 1.38 µM)
- MIC (MRSA isolates; [6]): 2 µg/mL (≈ 1.38 µM)
- MBC (MRSA isolates; [7]): 4 µg/mL (≈ 2.76 µM)
- MIC (MRSA isolates; [7]): 4 µg/mL (≈ 2.76 µM)
- MBC (MRSA isolates; [8]): 8 µg/mL (≈ 5.52 µM)
- MIC (MRSA isolates; [8]): 2 µg/mL (≈ 1.38 µM)
- MBC (MRSA isolates; [9]): 2 µg/mL (≈ 1.38 µM)
- MIC (MRSA isolates; [9]): 2 µg/mL (≈ 1.38 µM)
- MBC (MRSA isolates; [10]): 8 µg/mL (≈ 5.52 µM)
- MIC (MRSA isolates; [10]): 2 µg/mL (≈ 1.38 µM)
- MBC (MRSA isolates; [11]): 4 µg/mL (≈ 2.76 µM)
- MIC (MRSA isolates; [11]): 2 µg/mL (≈ 1.38 µM)
- MBC (MRSA isolates; Staphylococcus aureus, MRSA, pH 5.5, read-out: Average MBC, average of six MRSA isolates, pH 5.5): 4.7 µg/mL (≈ 3.24 µM)
- MIC (MRSA isolates; Staphylococcus aureus, MRSA, pH 5.5, read-out: Average MIC, average of six MRSA isolates, pH 5.5): 2.3 µg/mL (≈ 1.59 µM)
- MBC (MRSA isolates; [12]): 4 µg/mL (≈ 2.76 µM)
- MIC (MRSA isolates; [12]): 1 µg/mL (≈ 0.69 µM)
- MBC (MRSA isolates; [13]): 2 µg/mL (≈ 1.38 µM)
- MIC (MRSA isolates; [13]): 2 µg/mL (≈ 1.38 µM)
- MBC (MRSA isolates; [14]): 4 µg/mL (≈ 2.76 µM)
- MIC (MRSA isolates; [14]): 2 µg/mL (≈ 1.38 µM)
- MBC (MRSA isolates; [15]): 2 µg/mL (≈ 1.38 µM)
- MIC (MRSA isolates; [15]): 1 µg/mL (≈ 0.69 µM)
- MBC (MRSA isolates; [16]): 2 µg/mL (≈ 1.38 µM)
- MIC (MRSA isolates; [16]): 2 µg/mL (≈ 1.38 µM)
- MBC (MRSA isolates; [17]): 2 µg/mL (≈ 1.38 µM)
- MIC (MRSA isolates; [17]): 1 µg/mL (≈ 0.69 µM)
- MBC (MRSA isolates; Staphylococcus aureus, MRSA, pH 6.5, read-out: Average MBC, average of six MRSA isolates, pH 6.5): 2.3 µg/mL (≈ 1.59 µM)
- MIC (MRSA isolates; Staphylococcus aureus, MRSA, pH 6.5, read-out: Average MIC, average of six MRSA isolates, pH 6.5): 1.5 µg/mL (≈ 1.04 µM)
- MBC (MRSA isolates; Staphylococcus aureus, MRSA, pH 7.4, read-out: Average MBC, average of six MRSA isolates, pH 7.4): 4.2 µg/mL (≈ 2.9 µM)
- MIC (MRSA isolates; Staphylococcus aureus, MRSA, pH 7.4, read-out: Average MIC, average of six MRSA isolates, pH 7.4): 1.7 µg/mL (≈ 1.17 µM)
- MBC (MRSA isolates; Staphylococcus aureus, MRSA, read-out: MBC90, 39 evaluated MRSA isolates, CLSI broth microdilution): 16 µg/mL (≈ 11 µM)
- MBC (MRSA isolates; TCH 1516, pH 7.4): 1 µg/mL (≈ 0.69 µM)
- MIC (MRSA isolates; TCH 1516, pH 7.4): 1 µg/mL (≈ 0.69 µM)
- change of MIC and MBC with the reduction in pH (MRSA isolates; six MRSA isolates, pH lowered to 5.5): increased
- MBC range [1, 18]: 2 to 16 µg/mL
- MIC range [1, 18]: 1 to 8 µg/mL
- MIC90 ([1]; Staphylococcus epidermidis): 4 µg/mL (≈ 2.76 µM)
- MBC ([1]; Staphylococcus epidermidis, read-out: MBC90): 8 µg/mL (≈ 5.52 µM)
- bacterial killing after 24 hours ([2]; stationary-phase SA LL 06, C59 at 1× and 2× MIC): complete lack of bacterial inhibition
- bacterial killing after 24 hours ([2]; stationary-phase TCH 1516): significantly higher bacterial burden
- concentration that completely eradicated biofilms [3]: did not demonstrate activity against MRSA biofilms
- frequency of resistance acquisition (MRSA isolate TCH 1516 [4]; TCH 1516, 2× MIC): 1.83 × 10^−8 ± 7.10 × 10^−9
- frequency of resistance acquisition (MRSA isolate TCH 1516 [4]; TCH 1516, 4× MIC): 1.56 × 10^−9 ± 7.12 × 10^−10
- frequency of resistance acquisition (MRSA isolate TCH 1516 [4]; TCH 1516, 8× MIC): 5.77 × 10^−10 ± 2.77 × 10^−10
- growth on drug-loaded plates (MRSA isolate TCH 1516 [4]; TCH 1516 stationary phase, C59 as low as 2× MIC, vancomycin up to 8× MIC): bacterial growth was observed
- initial increase in MIC (MRSA isolate TCH 1516 [5]): sixfold
